Measured values taken from patent US20240309117A1, “APTAMER-PEPTIDE CONJUGATES” (CITY UNIVERSITY OF HONG KONG, priority 2023, published 2024).
[L-RNA-N] = L-ribonucleotide (mirror-image RNA) unit (N: the base)

Tests used:
[1] = test system: hTERC rG4 WT; assay: Dual-luciferase reporter gene assay, hTERC rG4 WT, HeLa cells; assay type: cell-based, human; conditions: 200 nM, 48 hours
Protocol: (§1) The DNA sequences encoding hTERC rG4 WT, hTERC rG4 Mut, NRAS rG4 WT, NRAS rG4 Mut, APP rG4 WT, and APP rG4 Mut (Table 1) were respectively introduced into the 5′UTR of the renilla luciferase gene in the psiCHECK-2 vector. 2×10^4 HeLa cells were seeded on 96-well black-wall plates. In sequential addition assay, 10 ng WT and Mut plasmids were transfected to cells by LIPOFECTAMINE® 2000 separately. Subsequently, Tamra_Ahx_R8, Tamra_Ahx_R8_L-Apt.4-1c, and L-Apt.4-1c (0, 100 nM, 200 nM) were separately added to cells after being washed with phosphate buffered saline (PBS) at 4 hours post-transfection and incubated for 48 hours. In co-transfection assay, 10 ng WT or Mut plasmid was co-transfected with Tamra_Ahx_R8, Tamra_Ahx_R8_L-Apt.4-1c, and L-Apt.4-1c (0, 100 nM, 200 nM) separately to cells by LIPOFECTAMINE® 2000 and incubated for 48 hours. Luciferase activity was determined by microplate reader. The renilla activity was normalized to firefly activity for data analysis.

[2] = test system: hTERC rG4 WT; assay: Dual-luciferase reporter assay, hTERC rG4 WT, HEK 293T cells; assay type: cell-based, human
Protocol: as §1

Q: What does the source list for “L-Apt.4-1c: the L-RNA aptamer of SEQ ID NO: 1 (GCCCUAAAGGUGGUGGUGGGAGGGC), non-conjugated control (all [L-RNA-N], backbone not given here)”?
A: Effect on normalized luciferase activity, hTERC rG4 WT construct ([1]; co-transfection with plasmid by LIPOFECTAMINE 2000, 0, 100 nM): only functioned well in co-transfection method; Effect on normalized luciferase activity, hTERC rG4 WT construct ([1]; sequential addition, absence of transfection reagent, 0, 100 nM): neither Tamra_Ahx_R8 peptide nor L-Apt.4-1c modulated luciferase activity; Effect on normalized luciferase activity, hTERC rG4 WT construct [2]: cannot regulate luciferase activity
